Experimental data from the supplement of paper PMC10307832.

Assays:
Experiment in all cases: relative viability (nuclei count vs DMSO), 5 days (fraction); higher = more cells survive
ABC-1 = tested on: ABC-1
In short: (§1)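 Relative viability divides the nuclei count in treated wells by that in vehicle wells. Lung cancer cell lines were seeded in 1536-well plates, dosed by pin tool the next day, and fixed and stained after 5 days in one step with final 0.05% Triton X-100, 1% formaldehyde and 1 ug/ml Hoechst. Dosing was a single drug or a fixed anchor-drug dose plus five library-drug doses (not always all listed) in √10 steps, and values are medians of duplicate plates imaged at 4×.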

COR-L23 = tested on: COR-L23
In short: as §1

EPLC-272H = tested on: EPLC-272H
In short: as §1

HARA = tested on: HARA
In short: as §1

HCC-15 = tested on: HCC-15
In short: as §1

HCC-78 = tested on: HCC-78
In short: as §1

LC-2-ad = tested on: LC-2-ad
In short: as §1

LU99A = tested on: LU99A
In short: as §1

NCI-H1651 = tested on: NCI-H1651
In short: as §1

NCI-H1915 = tested on: NCI-H1915
In short: as §1

NCI-H1993 = tested on: NCI-H1993
In short: as §1

NCI-H2009 = tested on: NCI-H2009
In short: as §1

NCI-H2085 = tested on: NCI-H2085
In short: as §1

NCI-H2126 = tested on: NCI-H2126
In short: as §1

NCI-H2342 = tested on: NCI-H2342
In short: as §1

NCI-H2347 = tested on: NCI-H2347
In short: as §1

NCI-H358 = tested on: NCI-H358
In short: as §1

NCI-H460 = tested on: NCI-H460
In short: as §1

NCI-H522 = tested on: NCI-H522
In short: as §1

NCI-H650 = tested on: NCI-H650
In short: as §1

NCI-H838 = tested on: NCI-H838
In short: as §1

PC-14 = tested on: PC-14
In short: as §1

SW 1573 = tested on: SW 1573
In short: as §1

UMC-11 = tested on: UMC-11
In short: as §1

C[C@@H]1CN(CC(=O)Nc2ccc3c(c2)Cc2cccc(-c4cc(=O)cc(N5CCOCC5)o4)c2S3)C[C@H](C)O1 + O=C(c1cc(Cc2n[nH]c(=O)c3ccccc23)ccc1F)N1CCN(C(=O)C2CC2)CC1 [Olaparib] (partner 8 µM)
relative viability (ABC-1; first compound 0.04 µM): 0.729 | relative viability (ABC-1; first compound 0.1265 µM): 1.22 | relative viability (ABC-1; first compound 0.4 µM): 0.804 | relative viability (ABC-1; first compound 4 µM): 1.08 | relative viability (COR-L23; first compound 0.04 µM): 0.39 | relative viability (COR-L23; first compound 0.1265 µM): 0.329 | relative viability (COR-L23; first compound 0.4 µM): 0.323 | relative viability (COR-L23; first compound 4 µM): 0.185 | relative viability (EPLC-272H; first compound 0.04 µM): 0.956 | relative viability (EPLC-272H; first compound 0.1265 µM): 0.81 | relative viability (EPLC-272H; first compound 0.4 µM): 0.647 | relative viability (EPLC-272H; first compound 4 µM): 0.317 | relative viability (HARA; first compound 0.04 µM): 0.932 | relative viability (HARA; first compound 0.1265 µM): 0.779 | relative viability (HARA; first compound 0.4 µM): 0.87 | relative viability (HARA; first compound 4 µM): 0.22 | relative viability (HCC-15; first compound 0.04 µM): 0.722 | relative viability (HCC-15; first compound 0.1265 µM): 0.658 | relative viability (HCC-15; first compound 0.4 µM): 0.586 | relative viability (HCC-15; first compound 4 µM): 0.286 | relative viability (HCC-78; first compound 0.04 µM): 0.735 | relative viability (HCC-78; first compound 0.1265 µM): 0.807 | relative viability (HCC-78; first compound 0.4 µM): 0.925 | relative viability (HCC-78; first compound 4 µM): 0.595 | relative viability (LC-2-ad; first compound 0.04 µM): 0.657 | relative viability (LC-2-ad; first compound 0.1265 µM): 0.653 | relative viability (LC-2-ad; first compound 0.4 µM): 0.689 | relative viability (LC-2-ad; first compound 4 µM): 0.433 | relative viability (LU99A; first compound 0.04 µM): 0.316 | relative viability (LU99A; first compound 0.1265 µM): 0.282 | relative viability (LU99A; first compound 0.4 µM): 0.259 | relative viability (LU99A; first compound 4 µM): 0.246 | relative viability (NCI-H1651; first compound 0.04 µM): 0.173 | relative viability (NCI-H1651; first compound 0.1265 µM): 0.167 | relative viability (NCI-H1651; first compound 0.4 µM): 0.178 | relative viability (NCI-H1651; first compound 4 µM): 0.139 | relative viability (NCI-H1915; first compound 0.04 µM): 0.25 | relative viability (NCI-H1915; first compound 0.1265 µM): 0.248 | relative viability (NCI-H1915; first compound 0.4 µM): 0.265 | relative viability (NCI-H1915; first compound 4 µM): 0.182 | relative viability (NCI-H1993; first compound 0.04 µM): 1.06 | relative viability (NCI-H1993; first compound 0.1265 µM): 0.963 | relative viability (NCI-H1993; first compound 0.4 µM): 0.942 | relative viability (NCI-H1993; first compound 4 µM): 0.81 | relative viability (NCI-H2009; first compound 0.04 µM): 0.71 | relative viability (NCI-H2009; first compound 0.1265 µM): 0.691 | relative viability (NCI-H2009; first compound 0.4 µM): 0.649 | relative viability (NCI-H2009; first compound 4 µM): 0.274 | relative viability (NCI-H2085; first compound 0.04 µM): 0.755 | relative viability (NCI-H2085; first compound 0.1265 µM): 0.786 | relative viability (NCI-H2085; first compound 0.4 µM): 0.781 | relative viability (NCI-H2085; first compound 4 µM): 0.345 | relative viability (NCI-H2126; first compound 0.04 µM): 0.928 | relative viability (NCI-H2126; first compound 0.1265 µM): 0.873 | relative viability (NCI-H2126; first compound 0.4 µM): 0.95 | relative viability (NCI-H2126; first compound 4 µM): 0.928 | relative viability (NCI-H2342; first compound 0.04 µM): 0.567 | relative viability (NCI-H2342; first compound 0.1265 µM): 0.52 | relative viability (NCI-H2342; first compound 0.4 µM): 0.52 | relative viability (NCI-H2342; first compound 4 µM): 0.419 | relative viability (NCI-H2347; first compound 0.04 µM): 0.636 | relative viability (NCI-H2347; first compound 0.1265 µM): 0.545 | relative viability (NCI-H2347; first compound 0.4 µM): 0.57 | relative viability (NCI-H2347; first compound 4 µM): 0.448 | relative viability (NCI-H358; first compound 0.04 µM): 0.654 | relative viability (NCI-H358; first compound 0.1265 µM): 0.66 | relative viability (NCI-H358; first compound 0.4 µM): 0.625 | relative viability (NCI-H358; first compound 4 µM): 0.178 | relative viability (NCI-H460; first compound 0.04 µM): 0.506 | relative viability (NCI-H460; first compound 0.1265 µM): 0.444 | relative viability (NCI-H460; first compound 0.4 µM): 0.502 | relative viability (NCI-H460; first compound 4 µM): 0.112 | relative viability (NCI-H522; first compound 0.04 µM): 0.612 | relative viability (NCI-H522; first compound 0.1265 µM): 0.667 | relative viability (NCI-H522; first compound 0.4 µM): 0.576 | relative viability (NCI-H522; first compound 4 µM): 0.614 | relative viability (NCI-H650; first compound 0.04 µM): 0.436 | relative viability (NCI-H650; first compound 0.1265 µM): 0.48 | relative viability (NCI-H650; first compound 0.4 µM): 0.438 | relative viability (NCI-H650; first compound 4 µM): 0.258 | relative viability (NCI-H838; first compound 0.04 µM): 0.746 | relative viability (NCI-H838; first compound 0.1265 µM): 0.685 | relative viability (NCI-H838; first compound 0.4 µM): 0.739 | relative viability (NCI-H838; first compound 4 µM): 0.323 | relative viability (PC-14; first compound 0.04 µM): 0.249 | relative viability (PC-14; first compound 0.1265 µM): 0.169 | relative viability (PC-14; first compound 0.4 µM): 0.205 | relative viability (PC-14; first compound 4 µM): 0.09 | relative viability (SW 1573; first compound 0.04 µM): 0.553 | relative viability (SW 1573; first compound 0.1265 µM): 0.546 | relative viability (SW 1573; first compound 0.4 µM): 0.495 | relative viability (SW 1573; first compound 4 µM): 0.21 | relative viability (UMC-11; first compound 0.04 µM): 0.32 | relative viability (UMC-11; first compound 0.1265 µM): 0.351 | relative viability (UMC-11; first compound 0.4 µM): 0.86 | relative viability (UMC-11; first compound 4 µM): 0.272
